Results reported in patent US10442778B2, “N1-phenylpropane-1,2-diamine compounds with selective activity in voltage-gated sodium channels” (Merck Sharp & Dohme Corp., priority 2016, dated 2019).

How the values were obtained:
[1] = target: T1, human Nav1.7 channels stably expressed in HEK 293 cells (Homo sapiens, UniProt Q15858); test: IonWorks Quattro automated patch-clamp, inactivated state block of Nav1.7; type: cell-based; conditions: double-pulse protocol, read-out: potency for the Nav 1.7 sodium ion channel (as measured by IonWorks)
T1 construct: expressed in transfected cells; host or cells: HEK 293
Description: (§1) Compounds were tested on human Nav1.7 and Nav1.5 channels stably expressed in HEK 293 cells. […] Cells were sealed on a planar substrate using the Population Patch Plate (PPC) technology. Electrical access was obtained using both nystatin and amphotericin. A double-pulse protocol was used for the determination of IC50 values for inactivated state block. Nav1.7 and Nav1.5 expressing cells were voltage clamped at −100 mV and −110 mV, respectively. A depolarizing prepulse to −10 mV (Nav1.7) or −30 mV (Nav1.5) for 1000 ms followed by a 10 ms repolarization to −100 mV (Nav1.7) or −110 mV (Nav1.5) was given to generate fractional channel inactivation of ˜50%, followed by a 10 ms test pulse to −10 mV (Nav1.7) or −30 mV (Nav1.5) to measure peak current in control conditions and after compound addition. The following recording solutions were used (mM). External: 150 NaCl, 2 CaCl2, 5 KCl, 1 Mg Cl2, 10 HEPES, 12 Dextrose; internal: 120 CsF, 30 CsCl, 10 EGTA, 5 HEPES, 5 NaF, 2 MgCl2.
(§2) For all electrophysiology experiments, offline analysis was used to determine percent inhibition as a function of drug concentration. IC50 values were determined by fitting to the Hill equation.

[2] = target: T2, human Nav1.5 channels stably expressed in HEK 293 cells (Homo sapiens, UniProt Q14524); test: IonWorks Quattro automated patch-clamp, inactivated state block of Nav1.5 (selectivity); type: cell-based; conditions: IonWorks measurement, both channels in HEK 293 cells
T2 construct: expressed in transfected cells; host or cells: HEK 293
Description: as §1, §2

T2 sequence (Q14524 whole entry): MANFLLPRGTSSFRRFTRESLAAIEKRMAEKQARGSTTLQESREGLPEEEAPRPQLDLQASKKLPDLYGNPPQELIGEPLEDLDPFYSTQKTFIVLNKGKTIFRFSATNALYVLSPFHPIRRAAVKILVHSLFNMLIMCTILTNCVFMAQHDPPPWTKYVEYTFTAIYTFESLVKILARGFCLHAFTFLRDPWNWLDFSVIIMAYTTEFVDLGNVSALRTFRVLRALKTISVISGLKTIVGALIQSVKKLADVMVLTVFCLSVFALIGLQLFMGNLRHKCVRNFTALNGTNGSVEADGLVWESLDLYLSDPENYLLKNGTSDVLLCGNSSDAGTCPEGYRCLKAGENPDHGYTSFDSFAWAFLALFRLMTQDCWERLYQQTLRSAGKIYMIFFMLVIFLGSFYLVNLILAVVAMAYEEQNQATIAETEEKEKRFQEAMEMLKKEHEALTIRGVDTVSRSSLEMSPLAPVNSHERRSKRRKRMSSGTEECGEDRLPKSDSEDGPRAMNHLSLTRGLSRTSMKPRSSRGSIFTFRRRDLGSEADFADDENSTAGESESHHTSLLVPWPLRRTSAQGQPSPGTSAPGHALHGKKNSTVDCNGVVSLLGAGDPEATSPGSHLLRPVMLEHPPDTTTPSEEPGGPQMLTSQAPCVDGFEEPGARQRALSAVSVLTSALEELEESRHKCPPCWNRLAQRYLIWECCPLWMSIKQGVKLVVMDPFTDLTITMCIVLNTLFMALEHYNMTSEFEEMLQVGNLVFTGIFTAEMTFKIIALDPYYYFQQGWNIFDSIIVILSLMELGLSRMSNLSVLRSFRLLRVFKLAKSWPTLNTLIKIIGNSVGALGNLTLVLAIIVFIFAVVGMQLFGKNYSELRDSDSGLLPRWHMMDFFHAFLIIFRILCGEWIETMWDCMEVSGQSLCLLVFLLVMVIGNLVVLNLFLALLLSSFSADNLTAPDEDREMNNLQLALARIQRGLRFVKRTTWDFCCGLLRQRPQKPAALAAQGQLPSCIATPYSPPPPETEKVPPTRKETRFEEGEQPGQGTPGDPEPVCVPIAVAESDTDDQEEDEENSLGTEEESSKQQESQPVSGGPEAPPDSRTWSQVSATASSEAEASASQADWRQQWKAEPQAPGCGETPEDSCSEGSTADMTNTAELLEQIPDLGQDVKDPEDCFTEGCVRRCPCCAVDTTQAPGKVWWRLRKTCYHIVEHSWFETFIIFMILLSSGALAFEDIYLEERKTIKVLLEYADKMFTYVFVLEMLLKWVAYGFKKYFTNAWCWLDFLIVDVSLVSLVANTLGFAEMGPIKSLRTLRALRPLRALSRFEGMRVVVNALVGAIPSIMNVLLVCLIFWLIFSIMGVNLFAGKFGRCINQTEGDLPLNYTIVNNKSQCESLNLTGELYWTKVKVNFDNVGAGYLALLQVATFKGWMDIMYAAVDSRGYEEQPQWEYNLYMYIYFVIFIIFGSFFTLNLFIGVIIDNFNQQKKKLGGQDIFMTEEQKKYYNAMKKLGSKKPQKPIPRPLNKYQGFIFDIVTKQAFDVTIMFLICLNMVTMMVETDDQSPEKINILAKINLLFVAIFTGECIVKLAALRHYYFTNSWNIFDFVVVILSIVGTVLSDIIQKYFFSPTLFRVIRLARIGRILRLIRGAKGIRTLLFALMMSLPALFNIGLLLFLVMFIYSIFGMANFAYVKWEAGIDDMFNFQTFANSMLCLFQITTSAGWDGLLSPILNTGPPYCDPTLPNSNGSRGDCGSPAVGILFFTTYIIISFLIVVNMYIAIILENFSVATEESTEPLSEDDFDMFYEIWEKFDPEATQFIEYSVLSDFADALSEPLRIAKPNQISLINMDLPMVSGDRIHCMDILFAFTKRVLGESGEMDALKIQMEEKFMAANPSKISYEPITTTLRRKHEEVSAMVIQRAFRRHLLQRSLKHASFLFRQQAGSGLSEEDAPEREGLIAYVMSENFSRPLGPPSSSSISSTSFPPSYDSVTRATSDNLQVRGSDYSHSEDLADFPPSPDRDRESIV
T1 sequence (Q15858 whole entry): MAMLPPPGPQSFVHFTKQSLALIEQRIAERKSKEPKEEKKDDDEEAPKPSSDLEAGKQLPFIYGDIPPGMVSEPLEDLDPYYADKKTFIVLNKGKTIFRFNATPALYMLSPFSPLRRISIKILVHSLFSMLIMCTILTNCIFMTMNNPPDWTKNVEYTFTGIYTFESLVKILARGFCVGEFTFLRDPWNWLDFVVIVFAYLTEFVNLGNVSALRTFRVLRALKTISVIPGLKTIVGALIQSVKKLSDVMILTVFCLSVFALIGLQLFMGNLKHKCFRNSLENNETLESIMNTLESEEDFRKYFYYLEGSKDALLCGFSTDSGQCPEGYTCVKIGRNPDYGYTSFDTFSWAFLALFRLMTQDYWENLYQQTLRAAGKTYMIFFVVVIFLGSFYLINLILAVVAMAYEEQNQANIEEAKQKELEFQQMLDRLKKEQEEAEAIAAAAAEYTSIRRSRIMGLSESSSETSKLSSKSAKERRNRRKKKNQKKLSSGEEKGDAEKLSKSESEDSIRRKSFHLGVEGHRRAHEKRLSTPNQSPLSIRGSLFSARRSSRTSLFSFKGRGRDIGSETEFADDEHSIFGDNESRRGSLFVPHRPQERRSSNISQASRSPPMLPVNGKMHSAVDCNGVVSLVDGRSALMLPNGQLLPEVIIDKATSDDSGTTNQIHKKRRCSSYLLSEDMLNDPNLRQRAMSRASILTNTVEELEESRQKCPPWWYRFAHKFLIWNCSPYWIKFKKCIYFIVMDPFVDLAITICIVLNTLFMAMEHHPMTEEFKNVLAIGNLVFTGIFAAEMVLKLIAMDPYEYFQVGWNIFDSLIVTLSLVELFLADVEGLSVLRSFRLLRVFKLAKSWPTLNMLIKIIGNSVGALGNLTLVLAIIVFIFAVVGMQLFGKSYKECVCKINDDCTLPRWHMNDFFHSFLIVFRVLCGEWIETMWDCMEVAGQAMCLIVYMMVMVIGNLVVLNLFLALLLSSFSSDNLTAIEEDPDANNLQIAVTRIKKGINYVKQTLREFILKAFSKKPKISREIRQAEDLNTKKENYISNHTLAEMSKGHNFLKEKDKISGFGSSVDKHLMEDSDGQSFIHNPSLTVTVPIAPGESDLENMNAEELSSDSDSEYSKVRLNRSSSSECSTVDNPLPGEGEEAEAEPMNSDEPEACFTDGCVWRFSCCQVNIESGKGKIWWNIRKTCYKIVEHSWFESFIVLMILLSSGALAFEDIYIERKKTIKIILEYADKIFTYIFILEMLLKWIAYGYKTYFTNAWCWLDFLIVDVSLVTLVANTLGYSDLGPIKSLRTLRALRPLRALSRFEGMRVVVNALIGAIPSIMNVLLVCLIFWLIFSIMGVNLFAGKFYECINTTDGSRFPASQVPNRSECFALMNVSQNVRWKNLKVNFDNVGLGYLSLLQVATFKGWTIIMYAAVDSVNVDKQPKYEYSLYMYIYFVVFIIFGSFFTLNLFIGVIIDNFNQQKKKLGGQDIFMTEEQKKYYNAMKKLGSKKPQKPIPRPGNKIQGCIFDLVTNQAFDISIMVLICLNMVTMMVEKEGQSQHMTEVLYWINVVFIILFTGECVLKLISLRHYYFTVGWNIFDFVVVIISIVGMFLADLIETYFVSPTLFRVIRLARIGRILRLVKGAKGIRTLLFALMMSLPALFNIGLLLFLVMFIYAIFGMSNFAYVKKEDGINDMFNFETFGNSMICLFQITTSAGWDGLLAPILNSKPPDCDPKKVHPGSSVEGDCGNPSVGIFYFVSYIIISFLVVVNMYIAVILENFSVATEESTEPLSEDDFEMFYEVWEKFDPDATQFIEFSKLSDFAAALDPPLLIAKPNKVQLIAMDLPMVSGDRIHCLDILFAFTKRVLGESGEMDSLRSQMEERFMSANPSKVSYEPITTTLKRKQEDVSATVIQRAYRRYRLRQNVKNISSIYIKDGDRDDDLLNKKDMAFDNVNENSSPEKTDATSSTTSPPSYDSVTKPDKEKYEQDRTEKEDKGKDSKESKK

Row | IC50 [1] | SMILES | ratio of Nav1.7 potency:Nav 1.5 potency [2]
1 | 850 nM | CN[C@H](CNc1cc(F)c(S(=O)(=O)Nc2ncc(F)s2)cc1Cl)CC1CC1 [Ex2-18, (S)-5-chloro-4-((3-cyclopropyl-2-(methylamino)propyl)amino)-2-fluoro-N-(5-fluorothiazol-2-yl)-benzenesulfonamide] | > 39
2 | 68 nM | CN[C@H](CNc1cc(F)c(S(=O)(=O)Nc2ncc(F)s2)cc1Cl)CC1CC1(C)C (stereo partly drawn) [Ex2-20, 5-chloro-4-(((2S)-3-(2,2-dimethylcyclopropyl)-2-(methylamino)propyl)amino)-2-fluoro-N-(5-fluorothiazol-2-yl)-benzenesulfonamide] | > 485
3 | 310 nM | CN[C@H](CNc1cc(F)c(S(=O)(=O)Nc2nccs2)cc1Cl)Cc1ccccc1F [Ex1-29, (S)-5-chloro-2-fluoro-4-((3-(2-fluorophenyl)-2-(methylamino)-propyl)-amino)-N-(thiazol-2-yl)-benzenesulfonamide] | > 106
4 | 30 nM | CN[C@H](CNc1cc(F)c(S(=O)(=O)Nc2nccs2)cc1Cl)Cc1ccc(F)c(F)c1 [Ex1-31, (S)-5-chloro-4-((3-(3,4-difluorophenyl)-2-(methyl-amino)propyl)amino)-2-fluoro-N-(thiazol-2-yl)-benzenesulfonamide] | > 1100
5 | 190 nM | CN[C@H](CNc1cc(F)c(S(=O)(=O)Nc2ncc(F)s2)cc1Cl)Cc1ccccc1 [Ex1-27, (S)-5-chloro-2-fluoro-N-(5-fluorothiazol-2-yl)-4-((2-(methylamino)-3-phenylpropyl)amino)-benzenesulfonamide] | > 174
6 | 130 nM | CN[C@H](CNc1cc(F)c(S(=O)(=O)Nc2nccs2)cc1Cl)Cc1cccc(F)c1Br [Ex1-33, (S)-4-((3-(2-bromo-3-fluorophenyl)-2-(methyl-amino)propyl)-amino)-5-chloro-2-fluoro-N-(thiazol-2-yl)-benzenesulfonamide] | > 254
7 | 30 nM | CCCC[C@@H](CNc1cc(F)c(S(=O)(=O)Nc2ncc(F)s2)cc1Cl)NC(C)C [Ex7-6, (S)-5-chloro-2-fluoro-N-(5-fluorothiazol-2-yl)-4-((2-(isopropylamino)hexyl)amino) benzenesulfonamide] | > 533
8 | 54 nM | CN[C@H](CNc1cc(F)c(S(=O)(=O)Nc2ncc(F)s2)cc1Cl)CC12CC(C1)C2 [Ex2-13, (S)-4-((3-(bicyclo[1.1.1]pentan-1-yl)-2-(methylamino)propyl)-amino)-5-chloro-2-fluoro-N-(5-fluorothiazol-2-yl)-benzenesulfonamide] | > 611
9 | 41 nM | CCCC[C@@H](CNc1cc(F)c(S(=O)(=O)Nc2ncc(F)s2)cc1Cl)NCCC [Ex7-5, (S)-5-chloro-2-fluoro-N-(5-fluorothiazol-2-yl)-4-((2-(propylainino)hexyl)amino) benzenesulfonamide] | > 805
10 | 140 nM | CN[C@@H](CCc1ccccc1)CNc1cc(F)c(S(=O)(=O)Nc2ncc(F)s2)cc1Cl [Ex1-22, (S)-5-chloro-2-fluoro-N-(5-fluorothiazol-2-yl)-4-((2-(methylamino)-4-phenylbutyl)amino)-benzenesulfonamide] | > 236
11 | 33 nM | CN[C@H](CNc1cc(F)c(S(=O)(=O)Nc2nccs2)cc1Cl)Cc1ccc(Cl)cc1 [Ex1-34, (S)-5-chloro-4-((3-(4-chlorophenyl)-2-(methyl-amino)propyl)amino)-2-fluoro-N-(thiazol-2-yl)-benzenesulfonamide] | > 1000
12 | 1030 nM | CN[C@H](CNc1cc(F)c(S(=O)(=O)Nc2ncc(F)s2)cc1Cl)CC1CCC1 [Ex2-12, (S)-5-chloro-4-((3-cyclobutyl-2-(methylamino)propyl)amino)-2-fluoro-N-(5-fluorothiazol-2-yl)benzenesulfonamide] | > 32
13 | 24 nM | CN[C@H](CNc1cc(F)c(S(=O)(=O)Nc2nccs2)cc1Cl)Cc1cccc(Cl)c1 [Ex1-19, (S)-5-chloro-4-((3-(3-chlorophenyl)-2-(methyl-amino)propyl)-amino)-2-fluoro-N-(thiazol-2-yl)-benzenesulfonamide] | > 1375
14 | 280 nM | CN[C@H](CNc1cc(F)c(S(=O)(=O)Nc2nccs2)cc1Cl)Cc1ccc(C)cc1 [Ex1-20, (S)-5-chloro-2-fluoro-4-((2-(methylamino)-3-(p-tolyl)propyl)amino)-N-(thiazol-2-yl)-benzenesulfonamide] | > 118
15 | 2000 nM | CN[C@H](CNc1cc(F)c(S(=O)(=O)Nc2ncc(F)s2)cc1Cl)CC1(CF)CC1 (single isomer, unassigned) [Ex5-4] | > 14
16 | 300 nM | CN[C@@H](CCC1CCC1)CNc1cc(F)c(S(=O)(=O)Nc2ncc(F)s2)cc1Cl [Ex3-13, (S)-5-chloro-4-((4-cyclobutyl-2-(methylamino)butyl)amino)-2-fluoro-N-(5-fluorothiazol-2-yl)-benzenesulfonamide] | > 110

Row | SMILES | IC50 [1] | ratio of Nav1.7 potency:Nav 1.5 potency [2]
17 | CN[C@H](CNc1cc(F)c(S(=O)(=O)Nc2ncc(F)s2)cc1Cl)C[Si](C)(C)C [Ex2-17, (R)-5-chloro-2-fluoro-N-(5-fluorothiazol-2-yl)-4-((2-(methylamino)-3-(trimethylsilyl)propyl)-amino)benzenesulfonamide] | 14 nM | > 1929
18 | CCN[C@H](CNc1cc(F)c(S(=O)(=O)Nc2ncc(F)s2)cc1Cl)C[Si](C)(C)C [Ex7-4, (R)-5-chloro-4-((2-(ethylamino)-3-(trimethylsilyl)propyl)amino)-2-fluoro-N-(5-fluorothiazol-2-yl)benzenesulfonamide] | 3 nM | > 11000
19 | CN(C)[C@H](CNc1cc(F)c(S(=O)(=O)Nc2ncc(F)s2)cc1Cl)C[Si](C)(C)C [Ex7-2, (R)-5-chloro-4-((2-(dimethylamino)-3-(trimethylsilyl)propyl)-amino)-2-fluoro-N-(5-fluorothiazol-2-yl)benzenesulfonamide] | 18 nM | > 889
